The values below come from patent US20090209615A1, “INHIBITORS OF MATRIX METALLOPROTEINASES TO TREAT NEUROLOGICAL DISORDERS” (priority 2004, published 2009).

“Also recorded” adds a separate entry of the source. Like-named read-outs stand apart in the source and are kept apart here.

Data set [1] concerns MMP gelatinolytic activity in the ischemic cortex. Briefly: In situ zymography of ischemic brain sections treated with MMP inhibitors. The conditions noted are these: brain sections after MCA occlusion/reperfusion treated with inhibitor. The format is biochemical, mouse.
Method: In situ zymography with the MMP fluorogenic substrate DQ-gelatin-FITC (Molecular Probes) was performed on fresh cryostat sections of mouse brains harvested after MCA ischemia and reperfusion (A to J). […] A, C, E, and G represent fluorogenic substrate (green), reflecting MMP activity in situ. B, D, F, H, I, and J are merged images of the fluorogenic substrate and Hoechst dye counterstaining to identify nuclei.
A, In situ zymography with the MMP fluorogenic substrate DQ-gel (green in top panels) merged with nuclear DNA staining by Hoechst dye (blue plus green in bottom panels).
For data set [2], the system named is MMP-9. Put plainly: MMP-9 activity in ischemic mouse brain after treatment in vivo (in situ zymography, gelatin zymography, Western blot). More on the design: species or system C57BL/6J mice. Background: A western blot detects proteins with antibodies after separation by electrophoresis.
Data set [3] has as its system laminin. Put plainly: Laminin degradation in the ischemic hemisphere after MCAO/R (Western blot, immunostaining). Format: in vivo, mouse. The conditions noted are these: for laminin degradation in the ischemic hemisphere (Western blot, 51 kDa fragment): SB-3CT-treated mice after transient MCAO/R.
Data set [4] concerns the target T1, MMP-9 (Mus musculus, UniProt P41245).
T1 construct: from tissue; host or cells: brain of C57BL/6J mice after MCA occlusion/reperfusion
Briefly: MMP-9 activity in ischemic mouse brain after treatment in vivo (in situ zymography, gelatin zymography, Western blot). The arrangement: species or system C57BL/6J mice. The conditions noted are these: SB-3CT-treated mice, 2-hr MCA occlusion and 24-hr reperfusion.

Data set [5] can be described thus: Physiological variables and regional cerebral blood flow in MCAO mice. The conditions noted are these: for Ca^2+ / Glucose / MABP / Na^+ / PCO2 / PO2 / pH: mean ± SEM (n = 5); for regional cerebral blood flow (rCBF), laser Doppler flowmetry: MCAO and reperfusion; for pH: arterial blood.
Data set [6] deals with C57BL/6J mice, MCA occlusion/reperfusion. Put plainly: Transient focal cerebral ischemia (MCA occlusion/reperfusion): infarct volume and neurological deficits. Format: in vivo.
In data set [7] the target is T2, MMP-9 (Homo sapiens, UniProt P14780). Briefly: Ex vivo degradation of neuronal laminin by exogenous MMP-9 in mouse-brain sections. The format is biochemical.
Target sequence in this assay (P14780 107-707 limits assumed, species assumed): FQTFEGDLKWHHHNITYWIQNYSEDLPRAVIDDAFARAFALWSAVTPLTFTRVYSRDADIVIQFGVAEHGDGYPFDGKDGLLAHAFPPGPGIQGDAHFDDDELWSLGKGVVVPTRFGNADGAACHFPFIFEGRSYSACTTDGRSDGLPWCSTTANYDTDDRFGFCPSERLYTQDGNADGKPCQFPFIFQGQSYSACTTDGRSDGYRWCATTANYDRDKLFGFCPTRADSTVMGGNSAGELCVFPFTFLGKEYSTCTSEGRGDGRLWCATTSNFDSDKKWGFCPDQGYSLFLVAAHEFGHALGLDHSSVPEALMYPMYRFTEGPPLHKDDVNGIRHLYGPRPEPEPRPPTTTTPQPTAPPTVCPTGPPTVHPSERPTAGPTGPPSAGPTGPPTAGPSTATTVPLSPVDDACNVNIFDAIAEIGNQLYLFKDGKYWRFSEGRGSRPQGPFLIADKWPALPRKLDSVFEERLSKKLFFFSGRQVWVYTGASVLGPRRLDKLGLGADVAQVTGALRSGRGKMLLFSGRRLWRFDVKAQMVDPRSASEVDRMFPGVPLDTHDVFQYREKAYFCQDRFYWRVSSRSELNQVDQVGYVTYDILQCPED
Method: Purified mouse Engelbreth-Holm-Swarm laminin (ms EHS Ln) served as a molecular marker for laminin immunoblotting. The membrane was reblotted with anti-actin antibody to ensure equal protein loading in each lane.
Ex vivo laminin degradation and Western blots. Brain lysates (50 mg of total protein in TBS with 0.05% Brij 35) were incubated overnight at 37° C. with activated MMP-9, latent preform of MMP-9 (proMMP-9), or the catalytic domain of membrane type 1 (MT1)-MMP. […] Laminin and MMP-9 were analyzed by immunoblotting using rabbit pan-laminin (pan-Ln) and MMP-9 antibodies (from Sigma (St. Louis, Mo.) and Calbiochem (La Jolla, Calif.), respectively), followed by peroxidase-conjugated anti-rabbit IgG antibody. Peroxidase was visualized by enhanced chemiluminescence (Amersham Biosciences).
Data set [8] concerns cerebrocortical neurons. Put plainly: Neuronal apoptosis induced by SNOC-activated MMP-9 in cerebrocortical cultures. The format is cell-based. The conditions noted are these: R-proMMP-9 pre-activated by SNOC, 18 hours.
The target of data set [9] is R-proMMP-9 (Homo sapiens, UniProt P14780). Briefly: Activation of R-proMMP-9 in vitro (gelatin zymography, fluorogenic peptide cleavage).
Sequence of R-proMMP-9 (P14780 20-444 limits assumed): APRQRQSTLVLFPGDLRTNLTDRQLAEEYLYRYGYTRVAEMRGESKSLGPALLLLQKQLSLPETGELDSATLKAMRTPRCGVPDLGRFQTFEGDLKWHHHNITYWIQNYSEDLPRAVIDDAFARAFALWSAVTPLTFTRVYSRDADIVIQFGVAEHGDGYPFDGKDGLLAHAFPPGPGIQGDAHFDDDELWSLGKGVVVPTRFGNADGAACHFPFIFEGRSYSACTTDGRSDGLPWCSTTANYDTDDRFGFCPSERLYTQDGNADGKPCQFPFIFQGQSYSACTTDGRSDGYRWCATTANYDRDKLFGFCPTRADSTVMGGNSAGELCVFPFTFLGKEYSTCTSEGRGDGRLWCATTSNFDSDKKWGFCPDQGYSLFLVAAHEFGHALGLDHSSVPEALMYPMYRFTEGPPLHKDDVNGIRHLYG
Data set [10] can be described thus: Stability of S-nitrosothiols (NAT conversion from DAN).
The target in data set [11] is T2, MMP-9. The conditions noted are these: high-affinity site for TIMPs, Olson et al. 1997; cited from earlier work.
Target sequence in this assay (P14780 107-707 limits assumed): as the sequence (P14780 107-707 limits assumed, species assumed) above
The target of data set [12] is T3, MMP-2 (Homo sapiens, UniProt P08253).
T3 sequence (P08253 110-660): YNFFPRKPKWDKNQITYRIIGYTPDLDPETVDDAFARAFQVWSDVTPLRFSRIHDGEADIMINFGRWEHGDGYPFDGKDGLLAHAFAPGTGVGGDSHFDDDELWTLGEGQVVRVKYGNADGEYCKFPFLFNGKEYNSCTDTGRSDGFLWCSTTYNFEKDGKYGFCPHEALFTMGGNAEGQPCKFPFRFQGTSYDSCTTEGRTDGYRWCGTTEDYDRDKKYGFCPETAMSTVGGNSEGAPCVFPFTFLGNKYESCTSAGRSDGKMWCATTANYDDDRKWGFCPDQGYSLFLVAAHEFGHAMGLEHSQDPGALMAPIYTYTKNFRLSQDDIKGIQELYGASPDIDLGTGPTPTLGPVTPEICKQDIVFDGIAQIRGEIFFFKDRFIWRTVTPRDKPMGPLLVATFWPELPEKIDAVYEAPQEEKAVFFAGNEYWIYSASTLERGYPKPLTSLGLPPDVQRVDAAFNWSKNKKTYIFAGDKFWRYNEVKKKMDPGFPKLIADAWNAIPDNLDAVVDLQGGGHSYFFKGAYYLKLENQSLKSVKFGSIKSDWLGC
The conditions noted are these: high-affinity site for TIMPs, Olson et al. 1997; cited from earlier work.

With `c1cnc2c(c1)ccc1cccnc12` [1,10-phenanthroline], the “MMP gelatinolytic activity in the ischemic cortex (in situ zymography)” value in [1] is listed as “reduced; also recorded: abrogated”; in [1] (listed as 1/10-phenanthroline), “can prevent activation of MMP-9”.
As for `O=[N+]([O-])c1cccc2c(Br)n[nH]c12` [3-bromo-7-nitroindazole, reference compound], the “MMP activity in the ischemic cortex (in situ zymography)” value in [2] (30 mg/kg body weight i.p. prior to ischemia, wild-type mice) is “abrogated”. For the same molecule, the “laminin degradation in the ischemic cortex (laminin immunoreactivity)” value in data set [3] (wild-type mice treated with nNOS inhibitor, after MCA occlusion/reperfusion) is recorded as “attenuated; also recorded: blockage of laminin degradation”.
In the case of `O=S(=O)(CC1CS1)c1ccc(Oc2ccccc2)cc1` (stereo not shown) [Compound 1, (4-Phenoxyphenylsulfonyl)methylthiirane], the “active MMP-9 in ischemic brain (gelatin zymography, Western blot)” value is on record as “attenuated the increase; also recorded: can prevent activation of MMP-9” in data set [4] (listed as SB3CT) and “attenuated the increase; also recorded: significantly decreased” in [4] (listed as SB-3CT). The “proMMP-9 in ischemic brain (gelatin zymography, Western blot)” value in [4] (listed as SB3CT) was “attenuated the increase”; in data set [4] (listed as SB-3CT), “attenuated the increase; also recorded: also decreased”. In addition, the “MMP gelatinolytic activity in the ischemic region (in situ zymography, deconvolution microscopy)” value in data set [2] (SB-3CT-treated mice vs vehicle-treated control, after MCAO/reperfusion) was “significantly reduced”. Moreover, the figures for the “laminin degradation in the ischemic hemisphere (Western blot, 51 kDa fragment)” value in data set [3] (listed as SB3CT) and in data set [3] (listed as SB-3CT) were “attenuated laminin degradation products” and “decreased laminin degradation; also recorded: reduced”, respectively. The “Ca^2+” value in data set [5] (After MCAO) came to 1.100 ± 0.074 mmol/L; in data set [5] (Before MCAO), 1.150 ± 0.021 mmol/L; in [5] (During MCAO) it was 1.117 ± 0.081 mmol/L. The Glucose in [5] (After MCAO) was 154.3 ± 12.6 mg/dL; in data set [5] (Before MCAO), 160.7 ± 13.2 mg/dL; in data set [5] (During MCAO), 162.70 ± 13.3 mg/dL. Moreover, the MABP in data set [5] (After MCAO) is 76.12 ± 2.89 mmHg; in [5] (Before MCAO) it was 78.68 ± 3.17 mmHg; in data set [5] (During MCAO), 79.49 ± 3.48 mmHg. Further, the “Na^+” value amounted to 157.7 ± 2.0 mmol/L in data set [5] (After MCAO), 155.7 ± 1.8 mmol/L in data set [5] (Before MCAO) and 157.20 ± 0.5 mmol/L in [5] (During MCAO). The PCO2 in data set [5] (After MCAO) is on record as 43.90 ± 5.28 mmHg; in data set [5] (Before MCAO) it was 40.70 ± 7.828 mmHg; in data set [5] (During MCAO) it was 44.95 ± 14.55 mmHg. The PO2 in data set [5] (After MCAO) is 245.4 ± 24.0 mmHg; in data set [5] (Before MCAO), 230.8 ± 31.7 mmHg; in data set [5] (During MCAO) it was 214.5 ± 10.3 mmHg. The “regional cerebral blood flow (rCBF), laser Doppler flowmetry” value is “no significant differences; also recorded: unaffected” in data set [5] (vs vehicle-treated controls, listed as SB3CT) and “no significant differences” in data set [5] (vs vehicle-treated controls, listed as SB-3CT). Further, the pH in data set [5] (After MCAO) was 7.170 ± 0.027; in [5] (Before MCAO) it was 7.313 ± 0.060; in [5] (During MCAO), 7.106 ± 0.025. In addition, the “physiological parameters including arterial blood gases and glucose” value in [5] (vs vehicle-treated controls) was “did not affect”. The “infarct volume (TTC staining)” value in data set [6] (25 mg/kg i.p. twice, 30 minutes before MCAO and 2 hours after MCAO, 2-hour MCAO, 24-hour reperfusion, vs vehicle, P<0.004 (FIG. 9), listed as SB3CT) was “decreases infarct volume; also recorded: protects the ischemic brain”; in [6] (25 mg/kg i.p., 24 h after reperfusion, vs vehicle-treated controls, p<0.001 (FIG. 14C)), “decreased infarct volume”. The infarct volume in data set [6] (25 mg/kg i.p., administration 6 h after ischemia, compared with 55% in vehicle-treated animals) was 40%; in [6] (25 mg/kg i.p., first injection 2 h postischemic, second 3 h later, 24 h after reperfusion), 30 % of control; in data set [6] (25 mg/kg i.p., preischemic injection (30 min before ischemia, second immediately before reperfusion), 24 h after reperfusion), 30 % of control. The neurological behavioral score entry in data set [6] (24 h after MCA occlusion/reperfusion, vs vehicle-treated controls, p<0.02 (FIG. 14D)) is “significantly improved neurological function”. For the same molecule, the “neurological behavioral outcomes (deficit score 0-4)” value in data set [6] (24 hours after focal MCAO and reperfusion, vs vehicle, P<0.01 (FIG. 9C), listed as SB3CT) is given as “significantly reduced neurological deficit outcomes; also recorded: improved”. The “behavioral scores (five-point scale)” value in [6] (treated 2 h after ischemia, 24 h after reperfusion) is reported as “significant improvement in behavioral scores”; in [6] (treated before ischemia, 24 h after reperfusion), “significant improvement in behavioral scores”.
Regarding `O=S(=O)(CCC1CO1)c1ccc(Oc2ccccc2)cc1` (stereo not shown) [Compound 5, 2-(4-Phenoxyphenylsulfonyl)ethyloxirane], the melting point (as a rule, the temperature of the solid-liquid transition) lay in the range of 75 to 77 °C.
As to `CNC(=O)[C@H](Cc1c[nH]c2ccccc12)NC(=O)[C@@H](CC(=O)NO)CC(C)C` [GM6001], the “degradation of neuronal laminin by activated MMP-9” value in [7] is listed as “significantly reduced laminin degradation; also recorded: inhibited MMP-9 proteolysis of neuronal laminin”. Further, the “MMP gelatinolytic activity in the ischemic cortex (in situ zymography)” value in data set [1] is “reduced; also recorded: abrogated; also recorded: can prevent activation of MMP-9”. The neuronal apoptosis entry in data set [8] is recorded as “abrogated the effect; also recorded: blocked the neuronal cell death”.
As for `N[C@@H](CSN=O)C(=O)O` [SNOC, S-nitrosocysteine], the “conversion of R-proMMP-9 into the activated form (gelatin zymography)” value in data set [9] (R-proMMP-9 100 ng/ml, 200 μM agent, 18 hours, room temperature) is “partial conversion”. Besides, the “initial velocity of R-proMMP-9 activation” value in [9] (cleavage of synthetic fluorogenic peptide substrate) was 0.88 µM/h. Moreover, the half-life (usually the time needed for the level to fall by half in the phase considered) at 200 μM in data set [10] was < 10 min. The decayed result in data set [10] (within 15 min of incubation) is reported as “over 95%”.
Turning to `O=NO` [acidified sodium nitrite, sodium nitrite], the “conversion of R-proMMP-9 into the activated form (gelatin zymography)” value in [9] is given as “partial conversion”.
As for “TIMP-1: endogenous cellular protein inhibitor of MMPs (tissue inhibitor of metalloproteinases)”, the figures for the Ki in data set [11] and in [12] were 24 ± 4 nM and 29 ± 5 nM, respectively.
